Reference: article PMC6444592, “Citrullination of HP1γ chromodomain affects association with chromatin” (Epigenetics & Chromatin, 2019)

What was measured:
H3K9me3(1–16) peptides = experiment: peptide pulldown assay; type: binding; conditions: 300 mM NaCl HBS-EP; Coomassie gel; n = 3 (p values 0.021, 0.008; ns 0.181)
Protocol: H3K9me3 or unmethylated H3(1–16) peptides, linked to Dynabeads MyOne streptavidin T1 (Thermo Fisher Scientific), were used in pulldown assays with eluted GST-HP1 in HBS-EP (300 mM NaCl, 10 mM HEPES KOH pH 7.4, 5 mM EDTA and 0.2% NP-40). Pulldown assays were performed in 300 mM NaCl HBS-EP as previously described. Samples were resuspended in 2 × Laemmli buffer and resolved by SDS-PAGE followed by Coomassie-blue staining. Images were quantified using ImageJ software.

chromatin = experiment: single-particle tracking, 500 ms, motion blurring: chromatin residence time; type: cell-based, mouse; conditions: for Percentage, Specific / Percentage, Unspecific / Residence time, Specific / Residence time, Unspecific / Residence time, specific binding: 500 ms; for Residence time, specific binding / specific residence time, in words: −LIF 72 h; for Residence time, specific binding: mESCs, mean ± SD (n = 3); for specific residence time, in words: p value left to right = 0.027, 0.036; for unspecific residence time, effect of LIF withdrawal: ns. p value > 0.841
From the text: Although HP1 is a multifunctional protein, its best-characterised function is its ability to specifically bind to H3 tails harbouring H3K9me3. This underpins the establishment of localised, as well as higher-order, chromatin domains. Indeed, binding of structural chromatin proteins, such as HP1, is crucial in establishing heterochromatin during stem cell differentiation. We therefore decided to focus on the chromatin bound fraction of HP1γ. We used a concept called motion blurring in which long exposures are used to blur molecules that are diffusing so they are not detected. Therefore, only molecules bound throughout the long exposure are imaged. We performed SPT at 500 ms time resolution of mESCs expressing either HP1γWT or HP1γR38/9A mutant proteins (−/+ LIF). Movies of representative cells are shown in Additional file 8: Movie S1, Additional file 9: Movie S2, Additional file 10: Movie S3, and Additional file 11: Movie S4.
Parental E14 mouse embryonic stem cell (mESC) line was profiled by transcriptome analysis, qPCR and potency assays and was routinely tested for mycoplasma contamination and tested negative. Cells were cultured in DMEM (Gibco) supplemented with 15% standard FCS (Gibco), 0.1 mM non-essential amino acids (Gibco), 1% penicillin/streptomycin, 2 mM L-glutamine (Gibco), 1 mM sodium pyruvate (Gibco), 0.1 mM β-mercaptoethanol (Life Technologies) and 10^6 units/l mLIF (ESGRO, Millipore). E14 cells were stored in incubators at 37 °C in 7.5% CO2 (100% humidity) and maintained in 0.1% gelatin coated 10-cm culture dishes with 1:6 passaging every 2 days. Media was changed on a daily basis. E14 ESCs expressing mouse mEos3.2–HaloTag-HP1 fusion proteins were generated by transfecting appropriate pSB7 plasmids into E14 cells using Lipofectamine 2000 transfection reagent (Invitrogen), followed by selection in 600 µg/ml geneticin (Life Technologies). After 2 weeks of geneticin selection, cells were sorted using a Sony SH800S cell sorter for the expression of mEos3.2. Differentiation of ESCs was induced by LIF withdrawal. ESCs cultured in complete ES cell media (+ LIF) were trypsinised and washed twice in 1x PBS to remove residual LIF, seeded into ES cell media without LIF and incubated for 24, 48 or 72 h.
An IX73 Olympus inverted microscope was used with circularly polarised laser beams aligned and focused at the back aperture of an Olympus 1.40 NA 100 × oil objective (Universal Plan Super Apochromat, 100 × , NA 1.40, UPLSAPO100XO/1.4). Continuous wavelength diode laser light sources used include a 561-nm (Cobolt, Jive 200, 200 mW) and a 405-nm laser (Stradus, Toptica, 405–100, 100 mW). Oblique angle illumination was achieved by aligning the laser off axis such that the emergent beam at the sample interface was near-collimated and incident at an angle slightly less than the critical angle θc ~ 67° for a glass/water interface. This generated a ~ 50 μm diameter excitation footprint. The power of the collimated beams at the back aperture of the microscope was 10 kW/cm^2 and 10–100 W/cm^2 for the 561-nm and 405-nm laser beams, respectively. The lasers were reflected by dichroic mirrors (Semrock, Di01-R405/488/561/635). The fluorescence emission was collected through the same objective and then further filtered using a combination of long-pass and band-pass filters (BLP01-561R and FF01-587/35 for 561 nm excitation). The emission signal was projected onto an EMCCD (Photometrics, Evolve 512 Delta) with an electron multiplication gain of 250 ADU/photon operating in a frame transfer mode.
mESCs expressing mEos3.2–HaloTag-tagged HP1γ were passaged 2 days before imaging onto 35-mm glass bottom dishes No 1.0 (MatTek Corporation P35G-1.0-14-C Case) in phenol red-free serum and LIF conditions, if not stated otherwise. […]

Row | Substance | Percentage, Specific (chromatin; +LIF, replicate i) | Percentage, Unspecific (chromatin; +LIF, replicate i) | Residence time, Specific (chromatin; +LIF, replicate i) | Residence time, Unspecific (chromatin; +LIF, replicate i) | Percentage, Specific (chromatin; +LIF, replicate ii) | Percentage, Unspecific (chromatin; +LIF, replicate ii) | Residence time, Specific (chromatin; +LIF, replicate ii) | Residence time, Unspecific (chromatin; +LIF, replicate ii) | Percentage, Specific (chromatin; +LIF, replicate iii) | Percentage, Unspecific (chromatin; +LIF, replicate iii) | Residence time, Specific (chromatin; +LIF, replicate iii) | Residence time, Unspecific (chromatin; +LIF, replicate iii) | Residence time, specific binding (chromatin) | specific residence time, in words (chromatin) | unspecific residence time, effect of LIF withdrawal (chromatin; −LIF 72 h versus +LIF) | Percentage, Specific (chromatin; −LIF, replicate i) | Percentage, Unspecific (chromatin; −LIF, replicate i) | Residence time, Specific (chromatin; −LIF, replicate i) | Residence time, Unspecific (chromatin; −LIF, replicate i) | Percentage, Specific (chromatin; −LIF, replicate ii) | further results
1 | HP1γR38/9A: HP1γ with alanine substitutions at amino acids 38 and 39 to mimic citrullination | 89.000% | 11.000% | 26.000 s | 4.100 s | 90.900% | 9.100% | 17.900 s | 2.100 s | 82.500% | 17.500% | 17.400 s | 1.300 s | 29.5 ± 4.1 s | significantly lower than for HP1γWT molecules | no effect | 83.000% | 17.000% | 34.000 s | 4.900 s | 90.800% | binding in pulldown, in words (H3K9me3(1–16) peptides): significantly reduced; specific residence time, in words (chromatin; listed as R38/9A mutant HP1γ): considerably shorter; Percentage, Unspecific (chromatin; −LIF, replicate ii): 9.200%; Residence time, Specific (chromatin; −LIF, replicate ii): 28.500 s; Residence time, Unspecific (chromatin; −LIF, replicate ii): 1.700 s; Percentage, Specific (chromatin; −LIF, replicate iii): 88.200%; Percentage, Unspecific (chromatin; −LIF, replicate iii): 11.800%; Residence time, Specific (chromatin; −LIF, replicate iii): 25.900 s; Residence time, Unspecific (chromatin; −LIF, replicate iii): 1.800 s
2 | HP1γWT: full-length mouse HP1γ wild type, as GST or mEos3.2–HaloTag fusion protein | 91.000% | 9.000% | 36.000 s | 4.400 s | 93.400% | 6.600% | 27.527 s | 1.549 s | 87.000% | 13.000% | 22.800 s | 1.500 s | 49.2 ± 12.3 s | significantly increased | no effect | 88.000% | 12.000% | 55.000 s | 6.000 s | 93.500% | increase of specific residence time upon differentiation (chromatin; −LIF 72 h versus +LIF): 20 s; Percentage, Unspecific (chromatin; −LIF, replicate ii): 6.500%; Residence time, Specific (chromatin; −LIF, replicate ii): 57.488 s; Residence time, Unspecific (chromatin; −LIF, replicate ii): 1.811 s; Percentage, Specific (chromatin; −LIF, replicate iii): 88.000%; Percentage, Unspecific (chromatin; −LIF, replicate iii): 12.000%; Residence time, Specific (chromatin; −LIF, replicate iii): 35.000 s; Residence time, Unspecific (chromatin; −LIF, replicate iii): 2.300 s
